The record followed here is US9969767B2, “Oxolupene derivatives” (priority 2014, dated 2018).

SMILES strings stand for the structures.

This assay has as its system recombinant NL4-3 virus (Renilla luciferase in nef, Gag P373S). Put plainly: HIV Cell Culture Assay (luciferase reporter virus in MT-2 cells). The class given is cell-based. To be noted: NL43. As for the experimental part:
MT-2 cells and 293T cells were obtained from the NIH AIDS Research and Reference Reagent Program. MT-2 cells were propagated in RPMI 1640 media supplemented with 10% heat inactivated fetal bovine serum, […]. The 293T cells were propagated in DMEM media supplemented with 10% heat inactivated fetal bovine serum (FBS), 100 units/mL penicillin G and 100 μg/mL streptomycin. The proviral DNA clone of NL4-3 was obtained from the NIH AIDS Research and Reference Reagent Program. A recombinant NL4-3 virus, in which a section of the nef gene from NL4-3 was replaced with the Renilla luciferase gene, was used as a reference virus. In addition, residue Gag P373 was converted to P373S. Briefly, the recombinant virus was prepared by transfection of the altered proviral clone of NL4-3. Transfections were performed in 293T cells using LipofectAMINE PLUS from Invitrogen (Carlsbad, Calif.), according to manufacturer's instruction. The virus was titered in MT-2 cells using luciferase enzyme activity as a marker. Luciferase was quantitated using the Dual Luciferase kit from Promega (Madison, Wis.), with modifications to the manufacturer's protocol. The diluted Passive Lysis solution was pre-mixed with the re-suspended Luciferase Assay Reagent and the re-suspended Stop & Glo Substrate (2:1:1 ratio). Fifty (50) μL of the mixture was added to each aspirated well on assay plates and luciferase activity was measured immediately on a Wallac TriLux (Perkin-Elmer). Antiviral activities of inhibitors toward the recombinant virus were quantified by measuring luciferase activity in cells infected for 4-5 days with NLRluc recombinants in the presence serial dilutions of the inhibitor.
(A reporter such as luciferase makes a cellular process visible.)
Take `CC(C)C1=C2[C@H]3CC[C@@H]4[C@@]5(C)CC=C(C6=CC[C@](CF)(C(=O)O)CC6)C(C)(C)[C@@H]5CC[C@@]4(C)[C@]3(C)CC[C@@]2(C(=O)O)CC1=O` [Example 5, (3aR,5aR,5bR,7aR,11aS,11bR,13aS)-9-((S)-4-carboxy-4-(fluoromethyl)cyclohex-1-en-1-yl)-1-isopropyl-5a,5b,8,8,11a-pentamethyl-2-oxo-3,3a,4,5,5a,5b,6,7,7a,8,11,11a,11b,12,13,13a-hexadecahydro-2H-cyclopenta[a]chrysene-3a-carboxylic acid]: the half-maximal effective concentration (EC50) is under 100 nM. The result for `CC(C)C1=C2[C@H]3CC[C@@H]4[C@@]5(C)CC=C(C6=CCC(C(=O)O)CC6)C(C)(C)[C@@H]5CC[C@@]4(C)[C@]3(C)CC[C@@]2(C(=O)NCCN2CCOCC2)CC1=O` (stereo partly drawn) [Example 1, 4-((3aR,5aR,5bR,7aR,11aS,11bR,13aS)-1-isopropyl-5a,5b,8,8,11a-pentamethyl-3a-((2-morpholinoethyl)carbamoyl)-2-oxo-3,3a,4,5,5a,5b,6,7,7a,8,11,11a,11b,12,13,13a-hexadecahydro-2H-cyclopenta[a]chrysen-9-yl)cyclohex-3-enecarboxylic acid] reads 1.93 nM.

Consider `CC(C)C1=C2[C@H]3CC[C@@H]4[C@@]5(C)CC=C(C6=CCC(C(=O)O)CC6)C(C)(C)[C@@H]5CC[C@@]4(C)[C@]3(C)CC[C@@]2(N)CC1=O` (stereo partly drawn) [Example 7, 4-((3aR,5aR,5bR,7aR,11aS,11bR,13aS)-3a-amino-1-isopropyl-5a,5b,8,8,11a-pentamethyl-2-oxo-3,3a,4,5,5a,5b,6,7,7a,8,11,11a,11b,12,13,13a-hexadecahydro-2H-cyclopenta[a]chrysen-9-yl)cyclohex-3-enecarboxylic acid], for which the half-maximal effective concentration (EC50) is 0.973 nM. Take `CC(C)C1=C2[C@H]3CC[C@@H]4[C@@]5(C)CC=C(C6=CC[C@](CF)(C(=O)O)CC6)C(C)(C)[C@@H]5CC[C@@]4(C)[C@]3(C)CC[C@@]2(CNCCCN2CCS(=O)(=O)CC2)C=C1c1ccccc1` [Example 16, (S)-4-((3aR,5aR,5bR,7aR,11aS,11bR,13aS)-3a-(((3-(1,1-dioxidothiomorpholino)propyl)amino)methyl)-1-isopropyl-5a,5b,8,8,11a-pentamethyl-2-phenyl-4,5,5a,5b,6,7,7a,8,11,11a,11b,12,13,13a-tetradecahydro-3aH-cyclopenta[a]chrysen-9-yl)-1-(fluoromethyl)cyclohex-3-enecarboxylic acid]: the EC50 was found to be 2.64 nM.

Take `CC(C)C1=C2[C@H]3CC[C@@H]4[C@@]5(C)CC=C(C6=CC[C@](CF)(C(=O)O)CC6)C(C)(C)[C@@H]5CC[C@@]4(C)[C@]3(C)CC[C@@]2(NCCN2CCC(S(C)(=O)=O)CC2)CC1=O` [Example 11, (S)-1-(fluoromethyl)-4-((3aR,5aR,5bR,7aR,11aS,11bR,13aS)-1-isopropyl-5a,5b,8,8,11a-pentamethyl-3a-((2-(4-(methylsulfonyl)piperidin-1-yl)ethyl)amino)-2-oxo-3,3a,4,5,5a,5b,6,7,7a,8,11,11a,11b,12,13,13a-hexadecahydro-2H-cyclopenta[a]chrysen-9-yl)cyclohex-3-enecarboxylic acid]: the EC50 is under 100 nM. In the case of `CC(C)C1=C2[C@H]3CC[C@@H]4[C@@]5(C)CC=C(C6=CC[C@](CF)(C(=O)O)CC6)C(C)(C)[C@@H]5CC[C@@]4(C)[C@]3(C)CC[C@@]2(NCCN2CCS(=O)(=O)CC2)C=C1c1ccccc1` [Example 17, (S)-4-((3aR,5aR,5bR,7aR,11aS,11bR,13aS)-3a-((2-(1,1-dioxidothiomorpholino)ethyl)amino)-1-isopropyl-5a,5b,8,8,11a-pentamethyl-2-phenyl-4,5,5a,5b,6,7,7a,8,11,11a,11b,12,13,13a-tetradecahydro-3aH-cyclopenta[a]chrysen-9-yl)-1-(fluoromethyl)cyclohex-3-enecarboxylic acid] it was 109 nM; in that of `CC(C)C1=C2[C@H]3CC[C@@H]4[C@@]5(C)CC=C(C6=CCC(C(=O)O)CC6)C(C)(C)[C@@H]5CC[C@@]4(C)[C@]3(C)CC[C@@]2(C(=O)O)CC1=O` (stereo partly drawn) [Example 4, (3aR,5aR,5bR,7aR,11aS,11bR,13aS)-9-(4-carboxycyclohex-1-en-1-yl)-1-isopropyl-5a,5b,8,8,11a-pentamethyl-2-oxo-3,3a,4,5,5a,5b,6,7,7a,8,11,11a,11b,12,13,13a-hexadecahydro-2H-cyclopenta[a]chrysene-3a-carboxylic acid], under 100 nM. The result for `CC(C)C1=C2[C@H]3CC[C@@H]4[C@@]5(C)CC=C(C6=CC[C@](CF)(C(=O)O)CC6)C(C)(C)[C@@H]5CC[C@@]4(C)[C@]3(C)CC[C@@]2(CNCCCN2CCS(=O)(=O)CC2)CC1=O` [Example 13] reads under 100 nM; that for `CC(C)C1=C2[C@H]3CC[C@@H]4[C@@]5(C)CC=C(c6ccc(C(=O)O)cc6)C(C)(C)[C@@H]5CC[C@@]4(C)[C@]3(C)CC[C@@]2(C(=O)O)CC1=O` [Example 3, (3aR,5aR,5bR,7aR,11aS,11bR,13aS)-9-(4-carboxyphenyl)-1-isopropyl-5a,5b,8,8,11a-pentamethyl-2-oxo-3,3a,4,5,5a,5b,6,7,7a,8,11,11a,11b,12,13,13a-hexadecahydro-2H-cyclopenta[a]chrysene-3a-carboxylic acid], under 100 nM; that for `CC(C)C1=C2[C@H]3CC[C@@H]4[C@@]5(C)CC=C(C6=CCC(C(=O)O)CC6)C(C)(C)[C@@H]5CC[C@@]4(C)[C@]3(C)CC[C@@]2(C(=O)NCCN2CCS(=O)(=O)CC2)CC1=O` (stereo partly drawn) [Example 2, 4-((3aR,5aR,5bR,7aR,11aS,11bR,13aS)-3a((2-(1,1-dioxidothiomorpholino)ethyl)carbamoyl)-1-isopropyl-5a,5b,8,8,11a-pentamethyl-2-oxo-3,3a,4,5,5a,5b,6,7,7a,8,11,11a,11b,12,13,13a-hexadecahydro-2H-cyclopenta[a]chrysen-9-yl)cyclohex-3-enecarboxylic acid], under 100 nM.

For the molecule `CC(C)C1=C2[C@H]3CC[C@@H]4[C@@]5(C)CC=C(C6=CC[C@](CF)(C(=O)O)CC6)C(C)(C)[C@@H]5CC[C@@]4(C)[C@]3(C)CC[C@@]2(N(CCN2CCS(=O)(=O)CC2)CCN2CCS(=O)(=O)CC2)CC1=O` [Example 10, (S)-4-((3aR,5aR,5bR,7aR,11aS,11bR,13aS)-3a-(bis(2-(1,1-dioxidothiomorpholino)ethyl)amino)-1-isopropyl-5a,5b,8,8,11a-pentamethyl-2-oxo-3,3a,4,5,5a,5b,6,7,7a,8,11,11a,11b,12,13,13a-hexadecahydro-2H-cyclopenta[a]chrysen-9-yl)-1-(fluoromethyl)cyclohex-3-enecarboxylic acid], the EC50 is under 100 nM. In the case of `CC(C)C1=C2[C@H]3CC[C@@H]4[C@@]5(C)CC=C(C6=CCC(C(=O)O)CC6)C(C)(C)[C@@H]5CC[C@@]4(C)[C@]3(C)CC[C@@]2(NCCN2CCS(=O)(=O)CC2)CC1=O` (stereo partly drawn) [Example 6, 4-((3aR,5aR,5bR,7aR,11aS,11bR,13aS)-3a-((2-(1,1-dioxidothiomorpholino)ethyl)amino)-1-isopropyl-5a,5b,8,8,11a-pentamethyl-2-oxo-3,3a,4,5,5a,5b,6,7,7a,8,11,11a,11b,12,13,13a-hexadecahydro-2H-cyclopenta[a]chrysen-9-yl)cyclohex-3-enecarboxylic acid] it was under 100 nM; in that of `CC(C)C1=C2[C@H]3CC[C@@H]4[C@@]5(C)CC=C(C6=CC[C@](CF)(C(=O)O)CC6)C(C)(C)[C@@H]5CC[C@@]4(C)[C@]3(C)CC[C@@]2(NCC[N+]2(CCN3CCC(S(C)(=O)=O)CC3)CCC(S(C)(=O)=O)CC2)CC1=O` (stereo partly drawn) [Example 12, 1-(2-(((3aR,5aR,5bR,7aR,11aS,11bR,13aS)-9-((S)-4-carboxy-4-(fluoromethyl)cyclohex-1-en-1-yl)-1-isopropyl-5a,5b,8,8,11a-pentamethyl-2-oxo-3,3a,4,5,5a,5b,6,7,7a,8,11,11a,11b,12,13,13a-hexadecahydro-2H-cyclopenta[a]chrysen-3a-yl)amino)ethyl)-4-(methylsulfonyl)-1-(2-(4-(methylsulfonyl)piperidin-1-yl)ethyl)piperidin-1-ium], under 100 nM. With `CC(C)C1=C2[C@H]3CC[C@@H]4[C@@]5(C)CC=C(C6=CC[C@](CF)(C(=O)O)CC6)C(C)(C)[C@@H]5CC[C@@]4(C)[C@]3(C)CC[C@@]2(N)CC1=O` [Example 8, (S)-4-((3aR,5aR,5bR,7aR,11aS,11bR,13aS)-3a-amino-1-isopropyl-5a,5b,8,8,11a-pentamethyl-2-oxo-3,3a,4,5,5a,5b,6,7,7a,8,11,11a,11b,12,13,13a-hexadecahydro-2H-cyclopenta[a]chrysen-9-yl)-1-(fluoromethyl)cyclohex-3-enecarboxylic acid], the EC50 was under 100 nM. Take `CC(C)C1=C2[C@H]3CC[C@@H]4[C@@]5(C)CC=C(C6=CCC(C(=O)O)CC6)C(C)(C)[C@@H]5CC[C@@]4(C)[C@]3(C)CC[C@@]2(C(O)CN(CCN(C)C)Cc2ccc(Cl)cc2)CC1=O` (stereo partly drawn) [Example 15, 4-((3aR,5aR,5bR,7aR,11aS,11bR,13aS)-3a-(2-((4-chlorobenzyl)(2-(dimethylamino)ethyl)amino)-1-hydroxyethyl)-1-isopropyl-5a,5b,8,8,11a-pentamethyl-2-oxo-3,3a,4,5,5a,5b,6,7,7a,8,11,11a,11b,12,13,13a-hexadecahydro-2H-cyclopenta[a]chrysen-9-yl)cyclohex-3-enecarboxylic acid]: the concentration for a half-maximal effect (EC50) was under 100 nM.

As a reminder, the EC50 is the concentration at which the effect is half-maximal.
